This note sets out measurements from patent publication US4304861A, “Process of producing antibiotic SM-173B with Streptomyces chromofuscus” (Hoffmann-La Roche Inc., priority 1977, dated 1981).

≈ marks a conversion by molar mass, not a printed value. Where only a bound is given, the exact number is not on record here.

One data set is described as follows: Solubility. Format: physicochemical.
Data set [1] can be described thus: Toxicity, intraperitoneal administration to mice. The conditions noted are these: mouse, in vivo, ip. Here is the method: The LD50 is greater than 200 mg/kg in the case of intraperitoneal administration to mice.
A short description of data set [2]: Acidity (physico-chemical properties). Format: physicochemical.
A further data set deals with Penicillium citrinum. Nature of the data set: Minimum Inhibitory Concentration (MIC), antibacterial spectrum. Type of data set: cell-based. The text has this: (§1) The antibacterial spectrum is evident from the following Table:
(§2) Minimum Inhibitory Concentration (MIC)
(§3) Test organism MIC (μg/ml)

For a further data set, the system named is Aspergillus niger. Described as above. Type of data set: cell-based.
Description: as §1, §2, §3

The subject of the next data set is Mycobacterium avium. The description is as above. Type of data set: cell-based.
Description: as §1, §2, §3

The subject of data set [3] is Staphylococcus epidermidis. The data set is described as above. Format: cell-based.
Description: as §1, §2, §3

The test system of another data set is Micrococcus flavus. The data set is described as above. Type of data set: cell-based.
Description: as §1, §2, §3

For the next data set, the system named is Bacillus cereus. The description is as above. Format: cell-based.
Description: as §1, §2, §3

Data set [4] concerns Staphylococcus aureus 209P. The data set is described as above. Format: cell-based.
Description: as §1, §2, §3

In the next data set the test system is Sarcina lutea. The data set is described as above. Type of data set: cell-based. Conditions: Micrococcus luteus.
Description: as §1, §2, §3

Data set [5] deals with Mycobacterium rhodochrous. The data set is described as above. Type of data set: cell-based.
Description: as §1, §2, §3

The subject of the next data set is Echerichia coli. The description is as above. Format: cell-based.
Description: as §1, §2, §3

Another data set concerns Mycobacterium smegmatis. Described as above. Format: cell-based. The conditions noted are these: Mycolicibacterium smegmatis.
Description: as §1, §2, §3

The subject of another data set is Bacillus subtilis. The data set is described as above. Format: cell-based.
Description: as §1, §2, §3

A further data set has as its system mycobacteria. Put plainly: Antibiotic activity (summary of MIC table). Type of data set: cell-based.
Description: as §1, §2, §3

The subject of the next data set is gram-positive bacteria. Nature of the data set: Antibiotic activity (summary of MIC table). Type of data set: cell-based. The conditions noted are these: a large number of gram-positive bacteria.
Description: as §1, §2, §3

In the case of `COC1Cc2c(cc3c(c2O)C(=O)c2c(O)cccc2C3=O)C(=O)C1(C)O` (stereo not drawn) [Antibiotic SM-173B], the Solubility result in the data set “Solubility” (in methanol, ethanol, butanol, acetone, chloroform, ethyl acetate) is reported as “Soluble”; in the data set “Solubility” (in n-hexane) it was “poorly soluble”; in the data set “Solubility” (in petroleum ether) it was “insoluble”; in the data set “Solubility” (in water), “insoluble”; in the data set “Solubility” (in water under alkaline conditions), “Soluble”. The LD50 (in general, the dose at which mortality reaches 50%) in data set [1] is > 200 mg/kg. Further, in [2], the acidity entry was “weakly acid”. For the same compound, the MIC (as a rule, the lowest concentration that inhibits growth of the organism) against Penicillium citrinum is 100 µg/mL (≈ 271 µM); against Aspergillus niger, 100 µg/mL (≈ 271 µM); with Mycobacterium avium, 6.25 µg/mL (≈ 17 µM); in [3], 3.13 µg/mL (≈ 8.5 µM); in the data set on Micrococcus flavus, 6.25 µg/mL (≈ 17 µM); in the data set on Bacillus cereus, 6.26 µg/mL (≈ 17 µM). For the same compound, the MIC came out at 6.25 µg/mL (≈ 17 µM) in data set [4]; 12.5 µg/mL (≈ 33.9 µM) in the data set on Sarcina lutea; 3.13 µg/mL (≈ 8.5 µM) in data set [5]; 100 µg/mL (≈ 271 µM) against Echerichia coli; 3.13 µg/mL (≈ 8.5 µM) in the data set on Mycobacterium smegmatis; 6.25 µg/mL (≈ 17 µM) in the data set on Bacillus subtilis. Moreover, the antibiotic activity result in the data set with mycobacteria and in the data set on gram-positive bacteria was “antibiotically active” in each case.
